The compound `CC(C)(C)CC(=O)OCC(=O)C12OC(C)(C)OC1CC1C3CCC4=CC(=O)C=CC4(C)C3(F)C(O)CC12C` (stereo unspecified) yielded a melting point of 295 °C.

In turn, `O=C1C=C(Nc2ccccc2)C(=O)c2ccccc21` had a melting point of 193 °C.

As for `O=S(=O)(Cl)c1ccc(S(=O)(=O)c2ccccc2)s1`, the melting point stood at 104 °C.

The compound `CSc1nc2[nH]c(Cc3ccccc3)nc(=O)c2n1C` returned a melting point of 286 °C.

`NNC(=O)c1cnn(-c2ccccc2)c1C(F)(F)F` showed a melting point of 153 to 155 °C.

In turn, `CC12CCC(C(=CNC(N)=O)C1=O)C2(C)C` (stereo unspecified) gave a melting point of 197 °C.

Take `CC1(C)C(C=C(Cl)Cl)C1C(=O)OC(C#N)c1ccc(F)c(Oc2ccccc2)c1` (stereo unspecified): the melting point stood at 93.5 °C.

`CCOP(=S)(OCC)SCC(=O)NC(C)C`: the melting point is 28.5 °C.

For `CC1=CCC(O)(C(C)C)CC1` (stereo unspecified), the melting point turned out to be 14.7 °C.

The compound `Cc1c(C)n(C(=O)c2ccccc2)c2ccccc12` came in with a melting point of 98 °C.

The compound `O=C1c2ccccc2S(=O)(=O)N1Br` returned a melting point of 160 to 170 °C.

For the compound `CCCCNC(=O)c1ccc2cc(O)c(O)cc2c1`, the melting point is 194 °C.

In the case of `Cn1c(=O)c2[nH]c(Cl)nc2n(C)c1=O`, the melting point was 290 °C.

The compound `O=Cc1cc2c(cc1Cl)OCO2` returned a melting point of 116 °C.

As for `O=[N+]([O-])c1ccc(Cl)cc1O`, the melting point is 41 °C.

As to `N=C(N)NS(=O)(=O)c1cc(C(F)(F)F)cc(C(F)(F)F)c1`, the melting point was in the range of 194 to 197 °C.

In turn, `O=c1ccocc1` gave a melting point of 32.5 °C.

In turn, `Cn1ccc(C(=O)O)n1` yielded a melting point of 154 °C.

Consider `O=C(Nc1cccc([N+](=O)[O-])c1)c1ccccc1`, for which the melting point came to 155 °C.

For the compound `CCCCCCN1CC(C(=O)O)CC1=O` (stereo unspecified), the melting point was found to be 42.5 °C.

With `NCCc1ccc(O)cc1`, the melting point came to 164 °C.

Compound `COS(=O)(=O)c1ccc(C)cc1` yielded a melting point of 28.5 °C.

For the compound `O=C(c1noc(-c2ccc(Cl)cc2)c1S(=O)(=O)c1ccccc1)c1cccc2ccccc12`, the melting point came out at 169 °C.

`N#Cc1cccc(Cn2c(=O)oc3ccccc32)c1` yielded a melting point of 170 to 172 °C.

Turning to `CCCCCCCCCCCCCC(CCCCCCCCCC)CCCCCCCCCC`, the melting point is 10.8 °C.

Regarding `COC(=O)c1ccc(CCl)o1`, the melting point is 32 to 36 °C.

For `Cc1cc([N+]([O-])=Nc2ccccc2)ccc1N=Nc1ccccc1`, the melting point is 103 °C.

`COc1ccccc1NC(C)=O`: the melting point stood at 87.5 °C.

`CC(=O)Nc1c(C)ccc2c1C(=O)c1ccccc1C2=O` registered a melting point of 133 °C.

`CS(=O)(=O)c1csc(C(=O)O)c1Cl`: the melting point is 234 to 236 °C.

Regarding `O=[N+]([O-])c1cccc2c1cnn2C1CC(O)C(CO)O1` (stereo unspecified), the melting point was 140 °C.

As to `Cc1cc(C)n2nc(SCc3ccccc3)nc2n1`, the melting point is 135 to 136 °C.

`CC12CCCCC1CCC1C2CCC2(C)C1CCC21OCCO1` (stereo unspecified) had a melting point of 143 °C.

Take `C#CC1(O)CCC2C3CCC4=C(CCC(=O)C4)C3CCC21C` (stereo unspecified): the melting point came out at 170 °C.

`NNC(=S)NCc1ccc2c(c1)OCO2` had a melting point of 158 to 160 °C.

`O=[N+]([O-])c1ccccc1/C(O)=C(/C(=N\O)c1ccccc1)c1ccccc1` had a melting point of 164 °C.

As for `CCC(=O)Oc1cccc2ccccc12`, the melting point lay within 34 to 35 °C.

Take `Cn1ccc(=O)[nH]c1=O`: the melting point is 237 °C.

`Cc1cc(=O)oc(C)c1C(=O)Oc1cccc(Cl)c1` yielded a melting point of 96 °C.

For the compound `COC(=O)c1cc(C(C)=O)ccc1O`, the melting point is 60 to 61 °C.

`O=C(OC(=O)C(=Cc1ccccc1)Cc1ccccc1)C(=Cc1ccccc1)Cc1ccccc1` displayed a melting point of 107 to 109 °C.

As to `O=Cc1ccc(Sc2ccc(Cl)cc2)c([N+](=O)[O-])c1`, the melting point stood at 120 °C.

Take `CCCC(C)(O)C#CC(C)(O)CCC` (stereo unspecified): the melting point was determined as 68.5 °C.

With `CC=C1CCC2C3CC=C4CC(OC(C)=O)CCC4(C)C3CCC12C` (stereo unspecified), the melting point came out at 137 °C.

With `COC1=CC(c2ccccc2)c2ccccc21` (stereo unspecified), the melting point was 68 °C.

Regarding `O=[N+]([O-])c1ccc(O)cc1O`, the melting point stood at 122 °C.

With `N#Cc1c(OCC(F)(F)F)cccc1OCC(F)(F)F`, the melting point was found to be 116 °C.

In turn, `O=Cc1ccc(O)c(Br)c1` showed a melting point of 127 °C.

Compound `CN1c2ccccc2Sc2ccc(CC(=O)O)cc21` gave a melting point of 146 °C.

Take `COC(=O)C1CCCc2c1[nH]c1cc(OC)ccc21` (stereo unspecified): the melting point worked out at 92 °C.

For `CSc1nccc(-c2ccc(S(=O)(=O)Cl)s2)n1`, the melting point fell in the range of 129 to 131 °C.

The compound `COC(=O)CC[C@@H](C)[C@H]1CC[C@H]2[C@@H]3C(=O)C[C@@H]4CCCC[C@]4(C)[C@H]3CC[C@]12C` returned a melting point of 92.9 °C.

The compound `Nc1nc(N)nc(NC2CC2)n1` showed a melting point of 225 °C.

As for `CC(C)(C)C(=O)OCOc1ccccc1C(N)=O`, the melting point was 95 °C.

As for `CC(=O)Nc1ccccc1/C=C\c1ccccc1`, the melting point lay within 115 to 117 °C.

Take `Fc1cc2c(cc1F)Oc1cc(Cl)c(Cl)cc1O2`: the melting point amounted to 223 °C.

The compound `Cc1ccccc1C(=O)NCC(=O)O` showed a melting point of 161 to 165 °C.

As for `COC(=O)[C@@H](C)Oc1ccc(O)cc1`, the melting point was in the range of 64 to 67 °C.

For the compound `CC(CN)C(=O)O` (racemic), the melting point lay in the range of 177 to 181 °C.

In the case of `Cc1cc(O)c2c(c1)C(=O)c1cc(O)cc(O)c1C2=O`, the melting point came to 257 °C.

As to `O=C(c1ccc(F)cc1)[C@H]1CCCC[C@H]1C(=O)O` (relative stereo), the melting point lay within 136 to 139 °C.

As to `O=S(=O)(NO)c1ccccc1`, the melting point was in the range of 120 to 125 °C.

For the compound `O=C(O)C1CCC1`, the melting point is -2 °C.

In turn, `Cc1cc(N=Nc2ccccc2)c(C(C)C)cc1[N+]([O-])=Nc1ccccc1` returned a melting point of 118 °C.

In turn, `O=C(Nc1ccccc1)c1cccc(S(=O)(=O)Nc2ccccc2)c1` came in with a melting point of 212 to 215 °C.

`O=CN(C=O)C=O`: the melting point fell in the range of 100 to 101 °C.

`BrC(Br)C(Br)(Br)Br` came in with a melting point of 56.5 °C.

In turn, `O=Cc1ccc(OCc2ccccc2F)cc1` displayed a melting point of 54 to 57 °C.

The compound `CCOC(=O)c1nnsc1N` displayed a melting point of 124 °C.

`CN(C)c1ccc(C(O)(c2ccccc2)c2ccc(N(C)C)cc2)cc1`: the melting point worked out at 113 °C.

Turning to `Cc1ccc(/C=C2/C=C(CC(C)C)OC2=O)o1`, the melting point came out at 88 °C.

With `O=C(O)c1cnc(Cl)c(Br)c1`, the melting point stood at 172 °C.

For `Nc1ccccc1OCCN1CCOCC1`, the melting point was in the range of 41 to 42 °C.

`CC(/N=N/c1cc(Cl)cc(Cl)c1O)=C(\Cl)C(=O)OCCOCCOCCCl`: the melting point came to 71.5 °C.

For `COC1C(O)C(C)OC(OC2C(Oc3cccc4c(O)c5c(=O)oc6ccc(C)c7c(=O)oc(c34)c5c67)OC(C)C(O)C2O)C1O` (stereo unspecified), the melting point was 185 °C.

In the case of `CC(NC(=O)CCCCN1C(=O)c2ccccc2C1=O)[P+]([O-])(Oc1ccccc1)Oc1ccccc1` (stereo unspecified), the melting point amounted to 144 °C.

Turning to `S=C=Nc1cc(Cl)c(Cl)cc1Cl`, the melting point is 45 °C.

In the case of `O=Cc1ccc(-c2ccccc2[N+](=O)[O-])o1`, the melting point fell in the range of 96 to 98 °C.

Regarding `CN(C)c1ccc2c(c1)Sc1cc(N(C)C)ccc1N2C(=O)c1ccccc1`, the melting point was determined as 195 °C.

Compound `Cc1cc(C(C#N)c2ccc(Cl)cc2)c(Cl)cc1NC(=O)c1cc(I)cc(I)c1O` (stereo unspecified) gave a melting point of 218 °C.

Consider `CCNC(=S)Nc1ccccc1`, for which the melting point fell in the range of 102 to 104 °C.

Turning to `CN1Cc2c(ccc3c2OCO3)C2C(O)Cc3cc4c(cc3C21)OCO4` (stereo unspecified), the melting point stood at 136 °C.

As for `C#CCOc1cc(-n2nc3n(c2=O)CCCC3)c(Cl)cc1Cl`, the melting point amounted to 168 °C.

`O=[N+]([O-])c1ccc(CBr)cc1`: the melting point was determined as 99 °C.

For `c1ccc(C2(c3ccccc3)CC2C2=NCCN2)cc1` (stereo unspecified), the melting point turned out to be 104 °C.

In the case of `Brc1cnc(N2CCCCC2)nc1OCc1ccccc1`, the melting point amounted to 107 °C.

Compound `Cc1cc(C(=O)CCl)c(C)n1-c1ccccc1` came in with a melting point of 93 to 94 °C.

In turn, `Cc1ccc(Sc2ncccc2C(=O)O)cc1` yielded a melting point of 218 to 221 °C.

Compound `Nc1ccc(CCc2ccc(N)cc2)cc1` came in with a melting point of 137 °C.

As to `Cc1nc(Cl)c2c(C)c(C)sc2n1`, the melting point fell in the range of 115 to 116 °C.

Take `CC(C)[C@@H](O)[C@H](N)C(=O)O`: the melting point is 225 to 227 °C.

Turning to `CC(C)N(C(=O)SCC(Cl)=C(Cl)Cl)C(C)C`, the melting point worked out at 29 °C.

As for `Cc1ccc(N)c(Br)c1`, the melting point was found to be 26 °C.

As for `N#Cc1cc(I)c(O)c(I)c1`, the melting point turned out to be 212 °C.

The compound `Cc1cc(-c2cc(C)c(O)c(C)c2)cc(C)c1O` yielded a melting point of 222 °C.

As to `NCc1cc2cc(Br)ccc2o1`, the melting point fell in the range of 39 to 40 °C.

`O=[N+]([O-])c1cccnc1Cl` displayed a melting point of 101 °C.

In turn, `O=CC=Cc1ccc([N+](=O)[O-])o1` registered a melting point of 118 °C.

`O=C(O)COCCNC(=O)C12CC3CC(CC(C3)C1)C2`: the melting point was 120 to 124 °C.

Turning to `NNC(=O)c1ccc(Br)cc1Cl`, the melting point was 173 to 175 °C.

In the case of `CC(=O)N1C(=O)N(C(C)=O)C2C1N(C(C)=O)C(=O)N2C(C)=O` (stereo unspecified), the melting point fell in the range of 234 to 238 °C.

In turn, `COc1ccc(C2(C(=O)O)CC2)cc1` displayed a melting point of 127 to 132 °C.

`CC(C)=CC(=O)NS(=O)(=O)c1ccc(N)cc1` yielded a melting point of 184 °C.

The compound `O=C(O)c1ccc(-c2ccco2)s1` displayed a melting point of 187 to 188 °C.

`Cc1oncc1I` yielded a melting point of 27 to 28 °C.

The compound `CCC1c2ccccc2N(C)C12C=Cc1cccc([N+](=O)[O-])c1O2` (stereo unspecified) had a melting point of 148 °C.

For the origin of these results see a melting point compilation (Tetko et al.).
